From PubChem BioAssay (NCI)
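Test compounds were applied to cells in 96-well plates for 48 hours at 5 doses. GI50 = concentration required for 50% inhibition of growth. TGI marks complete inhibition of growth.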

Assays:
Experiment in all cases: DTP human tumour cell line panel, 48 h
LOX IMVI melanoma = tested on: LOX IMVI melanoma
HOP-92 NSCLC = tested on: HOP-92 NSCLC
A498 renal = tested on: A498 renal
SK-MEL-2 melanoma = tested on: SK-MEL-2 melanoma
NCI-H460 lung = tested on: NCI-H460 lung
K-562 leukemia = tested on: K-562 leukemia
MDA-MB-435 = tested on: MDA-MB-435
OVCAR-4 ovarian = tested on: OVCAR-4 ovarian
MOLT-4 leukemia = tested on: MOLT-4 leukemia
HS 578T breast = tested on: HS 578T breast
SF-539 CNS = tested on: SF-539 CNS
786-0 renal = tested on: 786-0 renal
HL-60(TB) leukemia = tested on: HL-60(TB) leukemia
MCF7 breast = tested on: MCF7 breast
ACHN renal = tested on: ACHN renal
NCI/ADR-RES ovarian = tested on: NCI/ADR-RES ovarian
SK-MEL-28 melanoma = tested on: SK-MEL-28 melanoma
SNB-75 CNS = tested on: SNB-75 CNS
HCC-2998 colon = tested on: HCC-2998 colon
NCI-H226 lung = tested on: NCI-H226 lung
MDA-MB-231 breast = tested on: MDA-MB-231 breast
SNB-19 CNS = tested on: SNB-19 CNS
NCI-H23 lung = tested on: NCI-H23 lung
BT-549 breast = tested on: BT-549 breast
TK-10 renal = tested on: TK-10 renal
HCT-15 colon = tested on: HCT-15 colon
NCI-H522 lung = tested on: NCI-H522 lung
T-47D breast = tested on: T-47D breast
UACC-257 melanoma = tested on: UACC-257 melanoma
HT29 colon = tested on: HT29 colon
SR leukemia = tested on: SR leukemia
DU-145 prostate = tested on: DU-145 prostate
U251 CNS = tested on: U251 CNS
CAKI-1 renal = tested on: CAKI-1 renal
PC-3 prostate = tested on: PC-3 prostate
RXF 393 renal = tested on: RXF 393 renal
HCT-116 colon = tested on: HCT-116 colon
SK-OV-3 ovarian = tested on: SK-OV-3 ovarian
EKVX NSCLC = tested on: EKVX NSCLC
SN12C renal = tested on: SN12C renal
M14 melanoma = tested on: M14 melanoma
HOP-62 NSCLC = tested on: HOP-62 NSCLC
SK-MEL-5 melanoma = tested on: SK-MEL-5 melanoma
UO-31 renal = tested on: UO-31 renal
SF-268 CNS = tested on: SF-268 CNS
IGROV1 ovarian = tested on: IGROV1 ovarian
SW-620 colon = tested on: SW-620 colon
A549 NSCLC = tested on: A549 NSCLC
OVCAR-5 ovarian = tested on: OVCAR-5 ovarian
RPMI-8226 leukemia = tested on: RPMI-8226 leukemia
MALME-3M melanoma = tested on: MALME-3M melanoma
OVCAR-3 ovarian = tested on: OVCAR-3 ovarian
CCRF-CEM leukemia = tested on: CCRF-CEM leukemia
COLO 205 colon = tested on: COLO 205 colon
OVCAR-8 ovarian = tested on: OVCAR-8 ovarian
SF-295 CNS = tested on: SF-295 CNS
UACC-62 melanoma = tested on: UACC-62 melanoma
KM12 colon = tested on: KM12 colon
MDA-N = tested on: MDA-N

## C(=C1c2ccccc2-c2ccccc21)c1ccccn1
LOX IMVI melanoma
  GI50: 8.52 µM
  TGI: 25.8 µM
HOP-92 NSCLC
  GI50: 7.43 µM
  TGI: 74.5 µM
A498 renal
  GI50: 3.51 µM
  TGI: 23.7 µM
SK-MEL-2 melanoma
  GI50: 12.7 µM
  TGI: 43 µM
NCI-H460 lung
  GI50: 5.87 µM
  TGI: 23 µM
K-562 leukemia
  GI50: 3.93 µM
  TGI: > 100 µM
MDA-MB-435
  GI50: 1.72 µM
  TGI: 3.69 µM
OVCAR-4 ovarian
  GI50: 15.3 µM
  TGI: > 100 µM
MOLT-4 leukemia
  GI50: 11.8 µM
  TGI: > 100 µM
HS 578T breast
  GI50: 6.21 µM
  TGI: 28.5 µM
SF-539 CNS
  GI50: 11.7 µM
  TGI: 50.2 µM
786-0 renal
  GI50: 14.7 µM
  TGI: 29.8 µM
HL-60(TB) leukemia
  GI50: 4.52 µM
  TGI: 38.5 µM
MCF7 breast
  GI50: 2.71 µM
  TGI: 21.3 µM
ACHN renal
  GI50: 26.6 µM
  TGI: > 100 µM
NCI/ADR-RES ovarian
  GI50: 3.86 µM
  TGI: 31 µM
SK-MEL-28 melanoma
  GI50: 8.12 µM
  TGI: 73 µM
SNB-75 CNS
  GI50: 16 µM
  TGI: > 100 µM
HCC-2998 colon
  GI50: 13 µM
  TGI: 46.3 µM
NCI-H226 lung
  GI50: 14.2 µM
  TGI: > 100 µM
MDA-MB-231 breast
  GI50: 12.3 µM
  TGI: 39.8 µM
SNB-19 CNS
  GI50: 14 µM
  TGI: > 100 µM
NCI-H23 lung
  GI50: 10.3 µM
  TGI: 96.7 µM
BT-549 breast
  GI50: 8.85 µM
  TGI: 53.1 µM
TK-10 renal
  GI50: 19 µM
  TGI: 57.3 µM
HCT-15 colon
  GI50: 6.21 µM
  TGI: 49.3 µM
NCI-H522 lung
  GI50: 11.1 µM
  TGI: 51.1 µM
T-47D breast
  GI50: 5.03 µM
  TGI: 50.9 µM
UACC-257 melanoma
  GI50: 20.1 µM
  TGI: > 100 µM
HT29 colon
  GI50: 3.56 µM
  TGI: 16.7 µM
SR leukemia
  GI50: 3.76 µM
  TGI: 38.3 µM
DU-145 prostate
  GI50: 16.1 µM
  TGI: 44.9 µM
U251 CNS
  GI50: 6.22 µM
  TGI: 70.9 µM
CAKI-1 renal
  GI50: 3.23 µM
  TGI: 19.6 µM
PC-3 prostate
  GI50: 22.7 µM
  TGI: > 100 µM
RXF 393 renal
  GI50: 7.58 µM
  TGI: 24.1 µM
HCT-116 colon
  GI50: 5.07 µM
  TGI: 24.6 µM
SK-OV-3 ovarian
  GI50: 13.1 µM
  TGI: 64.9 µM
EKVX NSCLC
  GI50: 5.85 µM
  TGI: 38.3 µM
SN12C renal
  GI50: 12.1 µM
  TGI: > 100 µM
M14 melanoma
  GI50: 4.06 µM
  TGI: 18.2 µM
HOP-62 NSCLC
  GI50: 6.61 µM
  TGI: 60.8 µM
SK-MEL-5 melanoma
  GI50: 11.5 µM
  TGI: 26.5 µM
UO-31 renal
  GI50: 8.64 µM
  TGI: 38.6 µM
SF-268 CNS
  GI50: 12.4 µM
  TGI: 57.7 µM
IGROV1 ovarian
  GI50: 4.89 µM
  TGI: 35.9 µM
SW-620 colon
  GI50: 4.03 µM
  TGI: 49.4 µM
A549 NSCLC
  GI50: 7.69 µM
  TGI: 49.5 µM
OVCAR-5 ovarian
  GI50: 21.8 µM
  TGI: > 100 µM
RPMI-8226 leukemia
  GI50: 16.2 µM
  TGI: > 100 µM
MALME-3M melanoma
  GI50: 3.61 µM
  TGI: 27 µM
OVCAR-3 ovarian
  GI50: 3.66 µM
  TGI: 15.9 µM
CCRF-CEM leukemia
  GI50: 7.8 µM
  TGI: 46 µM
COLO 205 colon
  GI50: 8.56 µM
  TGI: 29.5 µM
OVCAR-8 ovarian
  GI50: 15.6 µM
  TGI: 77.8 µM
SF-295 CNS
  GI50: 1.57 µM
  TGI: 5.97 µM
UACC-62 melanoma
  GI50: 5.8 µM
  TGI: > 100 µM
KM12 colon
  GI50: 3.6 µM
  TGI: 14.2 µM

## CCOc1ccccc1/C=C1\NC(=O)N(/C=C2\C(=O)Oc3ccccc3C2=O)C1=O
LOX IMVI melanoma
  TGI: > 100 µM
HOP-92 NSCLC
  TGI: 67.9 µM
SK-MEL-2 melanoma
  TGI: > 100 µM
NCI-H460 lung
  TGI: > 100 µM
MDA-MB-435
  TGI: > 100 µM
OVCAR-4 ovarian
  TGI: > 100 µM
MOLT-4 leukemia
  TGI: 64.3 µM
HS 578T breast
  TGI: > 100 µM
MDA-N
  TGI: > 100 µM
SF-539 CNS
  TGI: > 100 µM
786-0 renal
  TGI: > 100 µM
HL-60(TB) leukemia
  TGI: 74.4 µM
MCF7 breast
  TGI: > 100 µM
ACHN renal
  TGI: > 100 µM
NCI/ADR-RES ovarian
  TGI: > 100 µM
SK-MEL-28 melanoma
  TGI: > 100 µM
SNB-75 CNS
  TGI: > 100 µM
HCC-2998 colon
  TGI: > 100 µM
NCI-H226 lung
  TGI: > 100 µM
MDA-MB-231 breast
  TGI: > 100 µM
SNB-19 CNS
  TGI: > 100 µM
NCI-H23 lung
  TGI: 95.5 µM
BT-549 breast
  TGI: > 100 µM
TK-10 renal
  TGI: 74.7 µM
HCT-15 colon
  TGI: > 100 µM
NCI-H522 lung
  TGI: > 100 µM
UACC-257 melanoma
  TGI: > 100 µM
HT29 colon
  TGI: > 100 µM
DU-145 prostate
  TGI: > 100 µM
U251 CNS
  TGI: > 100 µM
CAKI-1 renal
  TGI: > 100 µM
PC-3 prostate
  TGI: > 100 µM
RXF 393 renal
  TGI: > 100 µM
HCT-116 colon
  TGI: > 100 µM
SK-OV-3 ovarian
  TGI: > 100 µM
EKVX NSCLC
  TGI: > 100 µM
SN12C renal
  TGI: > 100 µM
M14 melanoma
  TGI: > 100 µM
HOP-62 NSCLC
  TGI: > 100 µM
SK-MEL-5 melanoma
  TGI: 57.9 µM
UO-31 renal
  TGI: 75 µM
SF-268 CNS
  TGI: > 100 µM
IGROV1 ovarian
  TGI: > 100 µM
SW-620 colon
  TGI: > 100 µM
A549 NSCLC
  TGI: > 100 µM
OVCAR-5 ovarian
  TGI: > 100 µM
OVCAR-3 ovarian
  TGI: > 100 µM
CCRF-CEM leukemia
  TGI: 59.1 µM
COLO 205 colon
  TGI: > 100 µM
OVCAR-8 ovarian
  TGI: > 100 µM
SF-295 CNS
  TGI: > 100 µM
UACC-62 melanoma
  TGI: > 100 µM
KM12 colon
  TGI: > 100 µM
